Experimental findings from ChEMBL document CHEMBL1201862, “PubChem BioAssay data set” (2004) are described below.

SMILES strings stand for the structures.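 All cell lines were grown in 96-well plates and treated with compound for 48 hours. At the GI50, growth is halved.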 Active and inactive are the calls of the source. No stated cut-off is given here; in the data, active = GI50 up to about 1.1 µM and inactive = higher.

Holding throughout (test): NCI tumour cell line growth inhibition, 48 h
The subject of experiment [1] is A498.
Experiment [2] has as its system T47D.
Experiment [3] has as its system HOP-92.
Experiment [4] concerns HCT-15.
In experiment [5] the test system is SNB-75.
In experiment [6] the test system is A549.
Experiment [7] concerns SNB-19.
Experiment [8] concerns NCI-H226.
Experiment [9] has as its system RPMI-8226.
The subject of experiment [10] is RXF 393.
The test system of experiment [11] is LOX IMVI.
For experiment [12], the system named is SK-OV-3.
In experiment [13] the test system is SK-MEL-5.
In experiment [14] the test system is K562.
Experiment [15] has as its system OVCAR-3.
Experiment [16] deals with SK-MEL-28.
For experiment [17], the system named is Hs-578T.
In experiment [18] the test system is MDA-MB-435.
The subject of experiment [19] is 786-0.
Experiment [20] deals with HL-60.

On to `COC(C/C(=C/CO[Si](C(C)C)(C(C)C)C(C)C)C(=O)Nc1ccccc1I)OC`, for which the GI50 was > 100 µM (inactive) in [1]; 30.4 µM (inactive) in [2]; 19 µM (inactive) in experiment [3]; 19.1 µM in experiment [4]; 88.1 µM (inactive) in experiment [5]; 22.9 µM (inactive) in experiment [6]. Also, the GI50 in experiment [7] is 18.4 µM (inactive); in experiment [8] it was 28.5 µM (inactive); in experiment [9] it was 6.15 µM (inactive); in experiment [10] it was 2.39 µM (inactive); in experiment [11], 16 µM (inactive); in experiment [12] it was 28.2 µM (inactive). Besides, the GI50 in [13] is 26.5 µM (inactive); in experiment [14], 14.9 µM (inactive); in experiment [15], 21.8 µM (inactive); in experiment [16], 59.4 µM (inactive); in experiment [17], 29.6 µM (inactive); in [18], 26.7 µM (inactive). Further, the GI50 in experiment [19] is 24.1 µM (inactive).
As to `Cc1ccnc(NS(=O)(=O)c2ccc(NC(=O)c3ccc4nc5ccccc5c(Nc5ccc(S(=O)(=O)Nc6nccc(C)n6)cc5)c4c3)cc2)n1`, the GI50 is 30.8 µM (inactive) in experiment [2]; 23.2 µM (inactive) in [3]; above 100 µM in experiment [4]; 50.4 µM (inactive) in experiment [5]; > 100 µM (inactive) in experiment [6]; 51.1 µM (inactive) in experiment [7]. Also, the GI50 in [8] is > 100 µM (inactive); in experiment [9] it was 57.8 µM (inactive); in experiment [10], 13.6 µM (inactive); in experiment [11] it was 45.3 µM (inactive); in experiment [12], > 100 µM (inactive); in experiment [13] it was 27.7 µM (inactive). The GI50 in experiment [20] is 94.4 µM (inactive); in experiment [14], 41.4 µM (inactive); in experiment [15] it was 33.6 µM (inactive); in experiment [16] it was > 100 µM (inactive); in [17], 37.3 µM (inactive); in [18], 66.1 µM (inactive). For the same compound, the GI50 in [19] is > 100 µM (inactive).
As to `O=C1CC(NCCCNC2CC(=O)c3c(Br)sc(Br)c32)c2c(Br)sc(Br)c21` (centres undefined), the GI50 is 2.11 µM (inactive) in [2]; 2.48 µM (inactive) in experiment [3]; 1.71 µM in experiment [4]; 2.48 µM (inactive) in [5]; 2.69 µM (inactive) in [6]; 2.45 µM (inactive) in experiment [7]. Further, the GI50 in experiment [8] is 3.78 µM (inactive); in experiment [9], 0.118 µM (active); in [10] it was 1.69 µM (inactive); in [11], 1.4 µM (inactive); in experiment [12] it was 4.1 µM (inactive); in experiment [13], 2.04 µM (inactive). In addition, the GI50 in experiment [20] was 1.38 µM (inactive); in experiment [14], 0.879 µM (active); in experiment [15], 1.82 µM (inactive); in experiment [16] it was 3.15 µM (inactive); in [17], 4.58 µM (inactive); in experiment [18], 1.39 µM (inactive). Besides, in experiment [19], the GI50 was 0.675 µM (active).
Take `O=[N+]([O-])c1cccc2nnccc12`: the GI50 was 36.8 µM (inactive) in [2]; 24.2 µM (inactive) in [3]; 12.9 µM in experiment [4]; 48.3 µM (inactive) in experiment [5]; 54.8 µM (inactive) in [6]; 35.9 µM (inactive) in experiment [7]. Besides, the GI50 is 16 µM (inactive) in [8]; 22 µM (inactive) in [9]; 63.5 µM (inactive) in experiment [10]; 93.3 µM (inactive) in experiment [12]; 14.1 µM (inactive) in experiment [13]; 2.5 µM (inactive) in experiment [20]. Further, the GI50 in experiment [14] is 23.9 µM (inactive); in experiment [17] it was 51.5 µM (inactive); in experiment [18], 15.7 µM (inactive); in experiment [19], 12.6 µM (inactive).
As for `O=C(NC(=S)Nc1ccc(Br)cc1)c1ccc2c(c1)Sc1ccccc1S2`, the GI50 was 19.6 µM (inactive) in experiment [1]; 16.9 µM (inactive) in experiment [2]; 15.8 µM (inactive) in experiment [3]; 38 µM in experiment [4]; 15 µM (inactive) in experiment [5]; 21 µM (inactive) in experiment [6]. In addition, the GI50 is 25.2 µM (inactive) in [7]; 23.4 µM (inactive) in experiment [8]; 23.3 µM (inactive) in experiment [11]; 16.7 µM (inactive) in experiment [12]; 51.1 µM (inactive) in [13]; 17.5 µM (inactive) in [20]. Further, the GI50 in experiment [14] is 9.04 µM (inactive); in experiment [15], 20.3 µM (inactive); in experiment [16], 78.7 µM (inactive); in experiment [17], 26.5 µM (inactive); in [18] it was 94.4 µM (inactive); in [19] it was 16.2 µM (inactive).
Take `CCCCc1c(OC)cc(O)c2c1C(=O)c1[nH]c(C(=O)O)c(O)c(=O)c1C2=O`: the GI50 in experiment [2] is 9.4 µM (inactive); in experiment [3] it was 3.19 µM (inactive); in [4], 23.8 µM; in experiment [5] it was 3.26 µM (inactive); in experiment [6], 77.1 µM (inactive); in [7] it was 2.25 µM (inactive). The GI50 in experiment [8] is 5.57 µM (inactive); in experiment [9] it was > 100 µM (inactive); in experiment [10] it was 1.56 µM (inactive); in [11], 4.01 µM (inactive); in experiment [12], 4.35 µM (inactive); in [20], 1.56 µM (inactive). Also, the GI50 in experiment [14] is > 100 µM (inactive); in experiment [15] it was 0.908 µM (active); in experiment [16], 4.11 µM (inactive); in [17] it was 1.82 µM (inactive); in experiment [18], 5.56 µM (inactive); in experiment [19], 1.62 µM (inactive).
On to `CC(=O)N(CC(=O)C(=O)NNc1ccoc1)c1ccc(Cl)cc1`, for which the GI50 in [2] was > 100 µM (inactive); in [3], > 100 µM (inactive); in [4] it was 50.5 µM; in experiment [5], > 100 µM (inactive); in [6], > 100 µM (inactive); in [7] it was > 100 µM (inactive). The GI50 in experiment [8], in [9], in experiment [10], in [11], in experiment [12] and in experiment [13] was > 100 µM (inactive) throughout. The GI50 in experiment [14] was 91.4 µM (inactive); in experiment [15], > 100 µM (inactive); in experiment [16] it was > 100 µM (inactive); in [17] it was > 100 µM (inactive); in [18] it was > 100 µM (inactive); in experiment [19], 94 µM (inactive).
Turning to `O=c1cccc2n1CC1CNC[C@H]2C1` [CYTISINICLINE], the GI50 was > 100 µM (inactive) in experiment [2]; > 100 µM (inactive) in [3]; above 100 µM in [4]; > 100 µM (inactive) in experiment [5]; > 100 µM (inactive) in [6]; > 100 µM (inactive) in experiment [7]. The GI50 in experiment [10], in [11], in experiment [12], in experiment [13], in experiment [14] and in [15] was > 100 µM (inactive) throughout. Also, the GI50 in experiment [16], in [17], in experiment [18] and in experiment [19] was > 100 µM (inactive) in each case.
In the case of `COc1cc(/C=N/N=C2NCCN2)ccc1O`, the GI50 in experiment [2] was > 100 µM (inactive); in [3] it was > 100 µM (inactive); in experiment [4], above 100 µM; in [5] it was > 100 µM (inactive); in experiment [6], > 100 µM (inactive); in experiment [7], > 100 µM (inactive). Moreover, the GI50 in [8], in experiment [9], in experiment [10], in experiment [11], in experiment [12] and in [13] was > 100 µM (inactive) in each case. Besides, the GI50 in [20], in experiment [14], in [15], in experiment [16], in experiment [17] and in [18] was > 100 µM (inactive) in each case. In addition, in experiment [19], the GI50 was > 100 µM (inactive).
Take `OCSc1nn(CO)c(=S)s1`: the GI50 in experiment [2] is 23.9 µM (inactive); in [3], 11.4 µM (inactive); in [4], 18.3 µM; in [5], 24.4 µM (inactive); in experiment [6] it was 33.2 µM (inactive); in experiment [7], 25.8 µM (inactive). Further, the GI50 in experiment [8] was 31.6 µM (inactive); in experiment [9] it was 25.4 µM (inactive); in experiment [10], 16.9 µM (inactive); in [11] it was 18 µM (inactive); in experiment [12], 34.4 µM (inactive); in experiment [13], 31.8 µM (inactive). In addition, the GI50 is 18 µM (inactive) in experiment [20]; 20.7 µM (inactive) in experiment [14]; 24 µM (inactive) in experiment [15]; 21.7 µM (inactive) in [16]; 14.3 µM (inactive) in [17]; 18.4 µM (inactive) in experiment [18]. Besides, the GI50 in [19] was 23.1 µM (inactive).
For `CCN(CC)c1ccc2cc(C(=O)Nc3cccc4ccccc34)c(=N)oc2c1`, the GI50 in experiment [2] was > 100 µM (inactive); in [3], > 100 µM (inactive); in [4], above 100 µM; in experiment [5], > 100 µM (inactive); in experiment [6], 75.9 µM (inactive); in [7] it was 52.8 µM (inactive). The GI50 is > 100 µM (inactive) in [8]; > 100 µM (inactive) in [9]; 61 µM (inactive) in [10]; > 100 µM (inactive) in experiment [11]; > 100 µM (inactive) in [12]; 43.1 µM (inactive) in experiment [13]. The GI50 is 7.98 µM (inactive) in experiment [20]; > 100 µM (inactive) in experiment [14]; 58.5 µM (inactive) in experiment [16]; 82 µM (inactive) in experiment [17]; 91.8 µM (inactive) in experiment [18]; 16.8 µM (inactive) in experiment [19].
